Reference: ChEMBL document CHEMBL1201862, “PubChem BioAssay data set” (2004)
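Grown in 96-well plates, cells were treated for 48 hours with each compound at five concentrations. Insufficient inhibition: endpoint recorded as highest concentration tested. The concentration for 50% growth inhibition is given as GI50.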 Activity calls are given as the source filed them. Rule as the data show it: active = GI50 up to about 1.1 µM and inactive = higher.

Key:
Assay in all cases: DTP human tumour cell line panel, 48 h
DLD-1 = system: DLD-1
DMS-114 = system: DMS-114
HOP-18 = system: HOP-18
M19-MEL = system: M19-MEL
RXF 631 = system: RXF 631
SNB-78 = system: SNB-78
DMS-273 = system: DMS-273
MDA-N = system: MDA-N
NCI/ADR-RES = system: NCI/ADR-RES

In the case of `CCCCCCCCCCCCCCC1OC(=O)c2ccccc21` (centres undefined), the GI50 (DLD-1) is reported as 71.4 µM (inactive), the GI50 (DMS-114) is reported as 24 µM (inactive) and the GI50 (HOP-18) is reported as > 100 µM (inactive). The GI50 (M19-MEL) was 85.7 µM (inactive), the GI50 (RXF 631) was > 100 µM (inactive) and the GI50 (SNB-78) was > 100 µM (inactive).
With `COC(=O)/C(=C/c1ccc(OC)cc1)c1cc(OC)c(OC)c(OC)c1` the GI50 (DLD-1) was 2.61 µM (inactive), the GI50 (DMS-114) was 2.96 µM (inactive) and the GI50 (DMS-273) was 0.746 µM (active). For the same compound, the GI50 (HOP-18) was > 100 µM (inactive), the GI50 (M19-MEL) was 3.46 µM (inactive) and the GI50 (MDA-N) was 0.133 µM (active). For the same compound, the GI50 (NCI/ADR-RES) was 0.514 µM (active) and the GI50 (SNB-78) was 5.02 µM (inactive).
In the case of `CC1=C(C)CC2(SC1)C(=O)c1ccccc1C2=O`, the GI50 (DLD-1) is reported as > 100 µM (inactive), the GI50 (DMS-114) is reported as > 100 µM (inactive) and the GI50 (DMS-273) is reported as > 100 µM (inactive). The GI50 (HOP-18) was > 100 µM (inactive), the GI50 (M19-MEL) was > 100 µM (inactive) and the GI50 (RXF 631) was > 100 µM (inactive). For the same compound, the GI50 (SNB-78) was > 100 µM (inactive).
With `CC(=O)CN(Cc1cc(C)c2c(c1)c1ccccc1n2Cc1ccccc1)S(=O)(=O)c1ccc(C)cc1` the GI50 (DLD-1) was > 100 µM (inactive), the GI50 (DMS-114) was > 100 µM (inactive) and the GI50 (DMS-273) was > 100 µM (inactive). For the same compound, the GI50 (HOP-18) was > 100 µM (inactive), the GI50 (M19-MEL) was > 100 µM (inactive) and the GI50 (RXF 631) was > 100 µM (inactive). The GI50 (SNB-78) was > 100 µM (inactive).
For `COc1ccc(/C=C\c2cc(OC)c(OC)c(OC)c2)cc1OC(=O)CC(N)C(=O)O` (centres undefined), the GI50 (DLD-1) was 0.0041 µM (active), the GI50 (DMS-114) was 0.00122 µM (active) and the GI50 (DMS-273) was 0.00195 µM (active). The GI50 (HOP-18) was 0.703 µM (active), the GI50 (M19-MEL) was 0.00135 µM (active) and the GI50 (MDA-N) was 0.000166 µM (active). The GI50 (NCI/ADR-RES) was 0.000224 µM (active) and the GI50 (SNB-78) was 0.00208 µM (active).
With `COc1cccc(N2C(=O)C3C4C=C5c6ccccc6N(c6ccccc6)C5(C3C2=O)[C@H]2C(=O)N(c3cccc(OC)c3)C(=O)[C@@H]42)c1` (some centres undefined) the GI50 (DLD-1) was > 100 µM (inactive), the GI50 (DMS-114) was > 100 µM (inactive) and the GI50 (DMS-273) was > 100 µM (inactive). For the same compound, the GI50 (HOP-18) was > 100 µM (inactive), the GI50 (M19-MEL) was > 100 µM (inactive) and the GI50 (RXF 631) was > 100 µM (inactive). The GI50 (SNB-78) was > 100 µM (inactive).
With `Cc1cc(Cl)ccc1N1C(=O)C(=O)C(c2nc3ccccc3s2)C(=O)C1=O` the GI50 (DLD-1) was > 100 µM (inactive), the GI50 (DMS-114) was > 100 µM (inactive) and the GI50 (DMS-273) was > 100 µM (inactive). For the same compound, the GI50 (HOP-18) was > 100 µM (inactive), the GI50 (RXF 631) was > 100 µM (inactive) and the GI50 (SNB-78) was > 100 µM (inactive).
With `CC(=O)n1c2c(c(=O)n1-c1ccccc1)[S+]([O-])CCC2` (centres undefined) the GI50 (DLD-1) was 48 µM (inactive), the GI50 (DMS-114) was 35.9 µM (inactive) and the GI50 (DMS-273) was 23.2 µM (inactive). For the same compound, the GI50 (M19-MEL) was 29.6 µM (inactive), the GI50 (RXF 631) was 97.1 µM (inactive) and the GI50 (SNB-78) was 85.9 µM (inactive).
With `Cc1cc2c(cc1C)[n+]([O-])c(C(=O)/C=C/c1ccccc1[N+](=O)[O-])c(C)[n+]2[O-]` the GI50 (DLD-1) was 77.6 µM (inactive), the GI50 (DMS-114) was 17.8 µM (inactive) and the GI50 (DMS-273) was 34.1 µM (inactive). For the same compound, the GI50 (HOP-18) was 38.5 µM (inactive), the GI50 (M19-MEL) was > 80 µM (inactive) and the GI50 (MDA-N) was > 96.2 µM (inactive). The GI50 (NCI/ADR-RES) was > 100 µM (inactive) and the GI50 (SNB-78) was 27 µM (inactive).
With `COc1cc(-c2cc(CCC(=O)Nc3ccccc3[N+](=O)[O-])n(-c3ccc([N+](=O)[O-])cc3[N+](=O)[O-])n2)ccc1O` the GI50 (DLD-1) was > 10 µM (inactive), the GI50 (DMS-114) was > 10 µM (inactive) and the GI50 (DMS-273) was > 10 µM (inactive). For the same compound, the GI50 (HOP-18) was > 10 µM (inactive), the GI50 (M19-MEL) was > 10 µM (inactive) and the GI50 (RXF 631) was > 10 µM (inactive). For the same compound, the GI50 (SNB-78) was > 10 µM (inactive).
With `Clc1ccc(SC(/C=C/NNC2=NN=C(c3ccccc3)C(c3ccccc3)N2)c2ccccc2)cc1` (centres undefined) the GI50 (DLD-1) was 23.4 µM (inactive), the GI50 (DMS-114) was 18.5 µM (inactive) and the GI50 (DMS-273) was 26.2 µM (inactive). For the same compound, the GI50 (M19-MEL) was 36.5 µM (inactive), the GI50 (RXF 631) was 25 µM (inactive) and the GI50 (SNB-78) was 32.7 µM (inactive).
`O=C(O/N=C1/CCC/C1=C\c1ccccc1)c1ccc([N+](=O)[O-])cc1` was tested, and the GI50 (DLD-1) was > 100 µM (inactive), the GI50 (DMS-114) was > 100 µM (inactive) and the GI50 (DMS-273) was > 100 µM (inactive). The GI50 (HOP-18) was > 100 µM (inactive), the GI50 (M19-MEL) was 15.5 µM (inactive) and the GI50 (RXF 631) was > 100 µM (inactive). The GI50 (SNB-78) was > 100 µM (inactive).
In the case of `CCOC(=O)C1Cc2c(ccc(OC)c2OC)C(=O)C1N` (centres undefined), the GI50 (DLD-1) is reported as > 100 µM (inactive), the GI50 (DMS-114) is reported as > 100 µM (inactive) and the GI50 (DMS-273) is reported as > 100 µM (inactive). The GI50 (HOP-18) was 97.5 µM (inactive), the GI50 (M19-MEL) was > 100 µM (inactive) and the GI50 (RXF 631) was > 100 µM (inactive). For the same compound, the GI50 (SNB-78) was > 100 µM (inactive).
For `CCc1ccccc1NC(=O)C(=O)C1C(=O)N(c2ccccc2)N=C1N` (centres undefined), the GI50 (DLD-1) was > 100 µM (inactive), the GI50 (DMS-114) was > 100 µM (inactive) and the GI50 (DMS-273) was > 100 µM (inactive). For the same compound, the GI50 (HOP-18) was > 100 µM (inactive), the GI50 (M19-MEL) was > 100 µM (inactive) and the GI50 (RXF 631) was > 100 µM (inactive). For the same compound, the GI50 (SNB-78) was > 100 µM (inactive).
`COc1cc2c(cc1O)[C@H](C)C(c1ccc(OC)c(OC)c1)O2` (some centres undefined) was tested, and the GI50 (DLD-1) was 8.11 µM (inactive), the GI50 (DMS-114) was 3.56 µM (inactive) and the GI50 (DMS-273) was 3.84 µM (inactive). The GI50 (HOP-18) was 4.36 µM (inactive), the GI50 (M19-MEL) was 4.18 µM (inactive) and the GI50 (SNB-78) was 17.3 µM (inactive).
In the case of `CC[N+](C)(C)c1ccc(C(=C2C=CC(=[N+](C)C)C=C2)c2ccc(N(C)C)cc2)cc1`, the GI50 (DLD-1) is reported as 6.07 µM (inactive), the GI50 (DMS-114) is reported as 11 µM (inactive) and the GI50 (DMS-273) is reported as 6.4 µM (inactive). The GI50 (HOP-18) was 6.89 µM (inactive), the GI50 (M19-MEL) was 7.91 µM (inactive) and the GI50 (RXF 631) was 13.4 µM (inactive).
